Key:
Assay in all cases: Test B pre-/postemergence plant response
Type in all cases: in vivo
[1] = tested on: kochia (Kochia scoparia)
In short: (§1)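 Each species received compound formulated in non-phytotoxic solvent with surfactant, either at planting into a loam and sand blend or as a foliar spray once plants reached 2 to 18 cm in peat-based medium. Plants stayed in the greenhouse 13 to 15 days before visual evaluation against controls, scored 0 (no effect) to 100 (complete control).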

[2] = tested on: Italian ryegrass (Lolium multiflorum)
In short: as §1

[3] = tested on: green foxtail (Setaria viridis)
In short: as §1

[4] = tested on: corn (Zea mays)
In short: as §1

[5] = tested on: velvetleaf (Abutilon theophrasti)
In short: as §1

[6] = tested on: downy bromegrass (Bromus tectorum)
In short: as §1

[7] = tested on: large crabgrass (Digitaria sanguinalis)
In short: as §1

[8] = tested on: ragweed (common ragweed, Ambrosia elatior)
In short: as §1

[9] = tested on: pigweed (Amaranthus retroflexus)
In short: as §1

[10] = tested on: blackgrass (Alopecurus myosuroides)
In short: as §1

[11] = tested on: Surinam grass (Brachiaria decumbens)
In short: as §1

[12] = tested on: cocklebur (Xanthium strumarium)
In short: as §1

[13] = tested on: yellow nutsedge (Cyperus esculentus)
In short: as §1

[14] = tested on: wild oat (Avena fatua)
In short: as §1

[15] = tested on: lambsquarters (Chenopodium album)
In short: as §1

[16] = tested on: bermudagrass (Cynodon dactylon)
In short: as §1

[17] = tested on: soybean (Glycine max)
In short: as §1

[18] = 31 g ai/ha, postemergence, scale 0 to 100, 0 is no effect, 100 is complete control
[19] = Postemergence, 62 g ai/ha, scale 0 (no effect) to 100 (complete control), 13 to 15 days
[20] = Postemergence, 125 g ai/ha, visual rating after 13 to 15 days, scale 0 (no effect) to 100 (complete control)
[21] = Postemergence, 250 g ai/ha, scale 0 to 100
[22] = 250 g ai/ha, Preemergence, 0 to 100 scale
[23] = Preemergence, 31 g ai/ha, scale 0 to 100 (0 no effect, 100 complete control)
[24] = Preemergence, 125 g ai/ha, 0 to 100 scale
[25] = Preemergence, 62 g ai/ha, scale 0 to 100, 0 no effect, 100 complete control

SMILES: CCn1c(-c2ccccc2)ncc(C(=O)C2=C(O)CCCC2=O)c1=O [Compound 49]
- Plant response rating, Kochia [1, 18]: 55
- Plant response rating, Kochia [1, 19]: 65
- Plant response rating, Kochia [1, 20]: 80
- Kochia plant response rating [1, 21]: 90
- Plant response rating, Ryegrass, Italian [2, 18]: 0
- Plant response rating, Ryegrass, Italian [2, 22]: 5
- Plant response rating, Ryegrass, Italian [2, 19]: 0
- Plant response rating, Ryegrass, Italian [2, 20]: 0
- Plant response rating, Ryegrass, Italian [2, 23]: 0
- Ryegrass, Italian plant response rating [2, 24]: 0
- Plant response rating, Foxtail, Green [3, 18]: 50
- Plant response rating, Foxtail, Green [3, 22]: 30
- Plant response rating, Foxtail, Green [3, 19]: 50
- Plant response rating, Foxtail, Green [3, 20]: 75
- Foxtail, Green plant response rating [3, 21]: 90
- Plant response rating, Foxtail, Green [3, 23]: 0
- Plant response rating, Foxtail, Green [3, 25]: 0
- Foxtail, Green plant response rating [3, 24]: 5
- Plant response rating, Corn [4, 18]: 5
- Plant response rating, Corn [4, 22]: 0
- Plant response rating, Corn [4, 19]: 5
- Plant response rating, Corn [4, 20]: 5
- Corn plant response rating [4, 21]: 15
- Plant response rating, Corn [4, 23]: 0
- Plant response rating, Corn [4, 25]: 0
- Corn plant response rating [4, 24]: 0
- Plant response rating, Velvetleaf [5, 18]: 90
- Plant response rating, Velvetleaf [5, 22]: 100
- Plant response rating, Velvetleaf [5, 19]: 95
- Plant response rating, Velvetleaf [5, 20]: 98
- Plant response rating, Velvetleaf [5, 23]: 95
- Velvetleaf plant response rating [5, 24]: 100
- Plant response rating, Bromegrass, Downy [6, 18]: 0
- Plant response rating, Bromegrass, Downy [6, 19]: 0
- Plant response rating, Bromegrass, Downy [6, 20]: 0
- Bromegrass, Downy plant response rating [6, 21]: 5
- Plant response rating, Bromegrass, Downy [6, 23]: 0
- Plant response rating, Bromegrass, Downy [6, 25]: 0
- Bromegrass, Downy plant response rating [6, 24]: 0
- Plant response rating, Crabgrass, Large [7, 18]: 75
- Plant response rating, Crabgrass, Large [7, 22]: 100
- Plant response rating, Crabgrass, Large [7, 19]: 75
- Plant response rating, Crabgrass, Large [7, 20]: 80
- Crabgrass, Large plant response rating [7, 21]: 85
- Plant response rating, Crabgrass, Large [7, 23]: 75
- Plant response rating, Crabgrass, Large [7, 25]: 95
- Crabgrass, Large plant response rating [7, 24]: 98
- Plant response rating, Ragweed [8, 18]: 75
- Plant response rating, Ragweed [8, 22]: 95
- Plant response rating, Ragweed [8, 19]: 80
- Plant response rating, Ragweed [8, 20]: 80
- Plant response rating, Ragweed [8, 23]: 70
- Ragweed plant response rating [8, 24]: 80
- Plant response rating, Pigweed [9, 18]: 80
- Plant response rating, Pigweed [9, 22]: 100
- Plant response rating, Pigweed [9, 19]: 90
- Plant response rating, Pigweed [9, 20]: 95
- Plant response rating, Pigweed [9, 23]: 100
- Pigweed plant response rating [9, 24]: 100
- Plant response rating, Blackgrass [10, 18]: 0
- Plant response rating, Blackgrass [10, 22]: 0
- Plant response rating, Blackgrass [10, 19]: 0
- Plant response rating, Blackgrass [10, 20]: 0
- Blackgrass plant response rating [10, 21]: 30
- Plant response rating, Blackgrass [10, 23]: 0
- Plant response rating, Blackgrass [10, 25]: 0
- Blackgrass plant response rating [10, 24]: 0
- Plant response rating, Surinam Grass [11, 18]: 15
- Plant response rating, Surinam Grass [11, 22]: 85
- Plant response rating, Surinam Grass [11, 19]: 30
- Plant response rating, Surinam Grass [11, 20]: 55
- Plant response rating, Surinam Grass [11, 23]: 0
- Surinam Grass plant response rating [11, 24]: 75
- Plant response rating, Cocklebur [12, 18]: 65
- Plant response rating, Cocklebur [12, 22]: 55
- Plant response rating, Cocklebur [12, 19]: 80
- Plant response rating, Cocklebur [12, 20]: 80
- Cocklebur plant response rating [12, 21]: 85
- Plant response rating, Cocklebur [12, 23]: 0
- Plant response rating, Cocklebur [12, 25]: 20
- Cocklebur plant response rating [12, 24]: 45
- Plant response rating, Nutsedge, Yellow [13, 18]: 65
- Plant response rating, Nutsedge, Yellow [13, 22]: 90
- Plant response rating, Nutsedge, Yellow [13, 19]: 65
- Plant response rating, Nutsedge, Yellow [13, 20]: 70
- Plant response rating, Nutsedge, Yellow [13, 23]: 60
- Nutsedge, Yellow plant response rating [13, 24]: 85
- Plant response rating, Oat, Wild [14, 18]: 0
- Plant response rating, Oat, Wild [14, 22]: 0
- Plant response rating, Oat, Wild [14, 19]: 5
- Plant response rating, Oat, Wild [14, 20]: 5
- Plant response rating, Oat, Wild [14, 23]: 0
- Oat, Wild plant response rating [14, 24]: 0
- Plant response rating, Lambsquarters [15, 18]: 70
- Plant response rating, Lambsquarters [15, 22]: 98
- Plant response rating, Lambsquarters [15, 19]: 80
- Plant response rating, Lambsquarters [15, 20]: 90
- Lambsquarters plant response rating [15, 21]: 98
- Plant response rating, Lambsquarters [15, 23]: 95
- Plant response rating, Lambsquarters [15, 25]: 95
- Lambsquarters plant response rating [15, 24]: 98
- Plant response rating, Bermudagrass [16, 18]: 75
- Plant response rating, Bermudagrass [16, 22]: 100
- Plant response rating, Bermudagrass [16, 19]: 85
- Plant response rating, Bermudagrass [16, 20]: 95
- Bermudagrass plant response rating [16, 21]: 98
- Bermudagrass plant response rating [16, 24]: 98
- Plant response rating, Soybean [17, 18]: 55
- Plant response rating, Soybean [17, 22]: 85
- Plant response rating, Soybean [17, 19]: 65
- Plant response rating, Soybean [17, 20]: 85
- Plant response rating, Soybean [17, 23]: 0
- Soybean plant response rating [17, 24]: 85
